Results on one substance are retold here after EP0311002A2, “Anthracyclin derivatives, a method for their preparation and their use as a drug” (HOECHST AKTIENGESELLSCHAFT, priority 1987, dated 1989).

The data set can be described thus: Qualitative solubility in solvents. Type of data set: physicochemical.

Consider 5‴-Epi-Cytorhodin S, for which the Löslichkeit result reads like this: (in Methanol, Ethylacetat, Chloroform und Toluol) “leicht löslich”; (in Wasser und Hexan) “unlöslich”.
